Assay results: patent US11691962B2 (eXIthera Pharmaceuticals, Inc., priority 2018, dated 2023)

These compounds were tested against Factor XIa (Homo sapiens (Human), UniProt P03951) (assay: Factor XIa enzyme inhibition assay (dose response, fluorogenic AMC substrate)). Settings: read-out: hFXIa IC50.
Assay type: biochemical
Experimental: • Assay buffer: 20 mM Hepes, pH 7.4; 150 mM NaCl; 0.02% Tween 20 • Compounds: 10 mM stocks in DMSO • Substrate: 20 mM Glp-Pro-Arg-AMC, 25 mg/2.3 mL H2O (store at +4° C.) [Factor XIa, thrombin, and trypsin] • 20 mM Pro-Phe-Arg-AMC (Bachem I-1295), 25 mg/2.2 mL H2O • or Boc-Leu-Gly-Arg-AMC (Bachem I-1105), 25 mg/2.07 mL H2O • (store at +4° C.) [Factor Xa] • Enzyme: Factor XIa; 0.25 μM in 50% glycerol (20 μg/mL) • Trypsin; 0.2 μM in 50% glycerol (4.8 μg/mL) • Thrombin; 0.2 μM in 50% glycerol (7.34 μg/mL) • Factor Xa; 0.2 μM in 50% glycerol (9.2 μg/mL) • These stocks are aliquoted (˜100 μL/aliquot) and stored at −20° C. Methods: • 1. Dilute the substrate to 100 μM in assay buffer (30 μL/6 mL). The enzyme is diluted to 0.5 nM just prior to use (12 μL/6 mL for Factor XIa; 15 μL/6 mL for all of the rest.) • 2. Pipette 50 μL of substrate into each well of the 96 well (12×8) microtiter plate. (Column 1 is used as the 100% activity control and receives no compound, and Column 12 is the blank and receives no enzyme.) Add an additional 46 μL to column 2. • 3. Pipette 4 μL of each compound into the appropriate well in column 2 of the plate (unknowns assayed in triplicate, standard assayed in duplicate). The final compound concentration will be […] of the stock. • 4. Serially two-fold dilute the compound by mixing the sample in column 2, removing 50 μL to the next well (column 3), mix and remove to column 4, etc. until column 11. After mixing column 11, remove 50 μL and discard. • 5. Pipette 50 μL of buffer into column 12. Initiate the reaction by adding 50 μL of enzyme solution to each well of columns 1-11 as rapidly as possible. • 6. Read the plate in a spectrophotometer (SpectraMax) at 30° C., wherein each well is measured every 60 s for 30 min. For Factor Xa assays, each well is measured every 1 min for a total of 60 min. • 7. For Factor XIa assays, the compounds are assayed, in duplicate, at 3 different starting concentrations, 20, 2, and 0.2 μM; 1:10, 1:100, and 1:1000 dilution of 10 mM stock or at 2, 0.2, and 0.02 μM; 1:100, 1:1000, and 1:10,000 dilution of 10 mM stock. Data for each concentration are combined for graphing and data fitting. • 8. Data can be used both for estimation of IC50 and for estimation of Kon.
Potential inhibitors of Factor XIa were evaluated using the following assay.
PyroGlu-Pro-Arg-7-methylaminocourin (AMC), available from CPC Scientific, Inc., is based on the substrate pyro-Glu-Pro-Arg-pNA (S-2366), available from Diapharma Group, Inc. (Columbus, Ohio), wherein the p-nitroanaline group is replaced with 7-methylaminocoumarin (AMC).
The final concentration of the substrate in the assay was 50 μM, and the final concentration of the enzyme was 0.25 nM. Inhibitors were tested by serial dilution over an appropriate range to yield a dose response curve for determination of the inhibitors' IC50 value. The assay mixture was read every minute for 30 minutes in order to generate progress curves. The plates were read in a Spectramax m5 Multimode Plate Reader (Molecular Devices LLC, Sunnyvale, Calif.). Dose response curves were fit to Equation 1 below in which A is the maximum inhibition, B is the minimum inhibition, C is the IC50, and D is the Hill coefficient. Y=[(A−B)/(1+(X/C)^D)]+B (Equation 1)

Factor XIa, sequence (P03951 388-625): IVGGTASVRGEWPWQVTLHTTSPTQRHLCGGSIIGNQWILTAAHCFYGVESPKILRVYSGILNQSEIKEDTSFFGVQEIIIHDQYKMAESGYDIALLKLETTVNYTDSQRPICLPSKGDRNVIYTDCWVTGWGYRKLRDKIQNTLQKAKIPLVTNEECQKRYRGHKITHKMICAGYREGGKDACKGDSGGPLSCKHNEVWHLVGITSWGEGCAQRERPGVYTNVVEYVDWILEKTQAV
Factor XIa, sequence (P03951 19-387 partner): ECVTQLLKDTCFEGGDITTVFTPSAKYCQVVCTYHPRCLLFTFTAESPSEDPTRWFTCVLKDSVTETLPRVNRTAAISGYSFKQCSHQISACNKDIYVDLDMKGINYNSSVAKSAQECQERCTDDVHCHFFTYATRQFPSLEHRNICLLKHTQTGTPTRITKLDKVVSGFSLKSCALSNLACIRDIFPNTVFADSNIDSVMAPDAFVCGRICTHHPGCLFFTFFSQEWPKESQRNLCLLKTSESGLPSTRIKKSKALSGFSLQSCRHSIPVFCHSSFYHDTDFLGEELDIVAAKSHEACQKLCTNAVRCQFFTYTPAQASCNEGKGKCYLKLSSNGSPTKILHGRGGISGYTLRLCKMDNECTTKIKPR

Row | IC50 | SMILES
1 | 10 to 100 nM | CC[C@@H](NC(=O)N1C(=O)[C@H](Cc2ccnc(N)c2)[C@H]1C(=O)N(C)c1ccn(C)n1)c1ccsc1 [Compound 1-54, (2S,3R)-3-((2-aminopyridin-4-yl)methyl)-N2-(1-methyl-1H-pyrazol-3-yl)-N1-((R)-1-(thiophen-3-yl)propyl)-N2-methyl-4-oxoazetidine-1,2-dicarboxamide]
2 | 10 to 100 nM | CC[C@H](c1cccc(Cl)c1)N(C)C(=O)N1C(=O)[C@H](Cc2ccnc(N)c2)[C@H]1C(=O)N(C)c1ccnn1C [Compound 1-60, (2S,3R)-3-((2-aminopyridin-4-yl)methyl)-N2-(1-methyl-1H-pyrazol-5-yl)-N1-((R)-1-(3-chlorophenyl)propyl)-N1-methyl-N2-methyl-4-oxoazetidine-1,2-dicarboxamide]
3 | 10 to 100 nM | CC[C@@H](NC(=O)N1C(=O)[C@H](Cc2cc(C)nc(NC)c2)[C@H]1C(=O)N(C)c1ccnn1C)c1ccccc1 [Compound 1-61, (2S,3R)-3-((2-methylamino-6-methylpyridin-4-yl)methyl)-N2-(1-methyl-1H-pyrazol-5-yl)-N1-((R)-1-phenylpropyl)-N2-methyl-4-oxoazetidine-1,2-dicarboxamide]
4 | 100 to 1000 nM | CNC(=O)N1C(=O)[C@H](Cc2ccnc(N)c2)[C@H]1C(=O)N(C)c1ccn(C)n1 [Compound 1-64, (2S,3R)-3-((2-aminopyridin-4-yl)methyl)-N2-(1-methyl-1H-pyrazol-3-yl)-N1-methyl-N2-methyl-4-oxoazetidine-1,2-dicarboxamide]
5 | 10 to 100 nM | CC[C@@H](NC(=O)N1C(=O)[C@H](Cc2cc(C)nc(NC)c2)[C@H]1C(=O)N(C)c1cnn(C)c1)c1ccccc1 [Compound 1-66, (2S,3R)-3-((2-methylamino-6-methylpyridin-4-yl)methyl)-N2-(1-methyl-1H-pyrazol-4-yl)-N1-((R)-1-phenylpropyl)-N2-methyl-4-oxoazetidine-1,2-dicarboxamide]
6 | 10 to 100 nM | CCC[C@@H](NC(=O)N1C(=O)[C@H](Cc2ccnc(N)c2)[C@H]1C(=O)N(C)c1ccn(C)n1)C1CCCCC1 [Compound 1-68, (2S,3R)-3-((2-aminopyridin-4-yl)methyl)-N2-(1-methyl-1H-pyrazol-3-yl)-N1-((R)-1-cyclohexylbutyl)-N2-methyl-4-oxoazetidine-1,2-dicarboxamide]
7 | 10 to 100 nM | CCCC[C@@H](NC(=O)N1C(=O)[C@H](Cc2ccnc(N)c2)[C@H]1C(=O)N(C)c1ccn(C)n1)C1CCCCC1 [Compound 1-73, (2S,3R)-3-((2-aminopyridin-4-yl)methyl)-N2-(1-methyl-1H-pyrazol-3-yl)-N1-((R)-1-cyclohexylpentyl)-N2-methyl-4-oxoazetidine-1,2-dicarboxamide]
8 | 10 to 100 nM | CC[C@@H](NC(=O)N1C(=O)[C@H](Cc2cc(C)nc(N)c2)[C@H]1C(=O)N(C)c1nccn1C)C1CCCCC1 [Compound 1-75, (2S,3R)-3-((2-amino-6-methylpyridin-4-yl)methyl)-N2-(1-methyl-1H-imidazol-2-yl)-N1-((R)-1-cyclohexylpropyl)-N2-methyl-4-oxoazetidine-1,2-dicarboxamide]
9 | 10 to 100 nM | CC[C@@H](NC(=O)N1C(=O)[C@H](Cc2cc(C)nc(N)c2)[C@H]1C(=O)N(C)c1cn(C)cn1)C1CCCCC1 [Compound 1-76, (2S,3R)-3-((2-amino-6-methylpyridin-4-yl)methyl)-N2-(1-methyl-1H-imidazol-4-yl)-N1-((R)-1-cyclohexylpropyl)-N2-methyl-4-oxoazetidine-1,2-dicarboxamide]
10 | 10 to 100 nM | CC[C@@H](NC(=O)N1C(=O)[C@H](Cc2ccnc(N)c2)[C@H]1C(=O)N(C)c1c(C)cnn1C)c1ccccc1 [Compound 1-78, (2S,3R)-3-((2-aminopyridin-4-yl)methyl)-N2-(1,4-dimethyl-1H-pyrazol-5-yl)-N1-((R)-1-phenylpropyl)-N2-methyl-4-oxoazetidine-1,2-dicarboxamide]
11 | 10 to 100 nM | CC[C@@H](NC(=O)N1C(=O)[C@H](Cc2cc(C)nc(N)c2)[C@H]1C(=O)N(C)c1nccn1C)c1ccc(C)nc1 [Compound 1-82, (2S,3R)-3-((2-amino-6-methylpyridin-4-yl)methyl)-N2-(1-methyl-1H-imidazol-2-yl)-N1-((R)-1-(6-methylpyridin-3-yl)propyl)-N2-methyl-4-oxoazetidine-1,2-dicarboxamide]
12 | 10 to 100 nM | CC(C)[C@@H](NC(=O)N1C(=O)[C@H](Cc2ccnc(N)c2)[C@H]1C(=O)N(C)c1nccn1C)c1ccccc1 [Compound 1-85, (2S,3R)-3-((2-aminopyridin-4-yl)methyl)-N2-(1-methyl-1H-imidazol-2-yl)-N1-((R)-1-phenyl-2-methylpropyl)-N2-methyl-4-oxoazetidine-1,2-dicarboxamide]
13 | 100 to 1000 nM | CC[C@@H](NC(=O)N1C(=O)[C@H](Cc2ccnc(N)c2)[C@H]1C(=O)N(C)c1nccn1C)c1cccc(F)c1C [Compound 1-86, (2S,3R)-3-((2-aminopyridin-4-yl)methyl)-N2-(1-methyl-1H-imidazol-2-yl)-N1-((R)-1-(3-fluoro-2-methylphenyl)propyl)-N2-methyl-4-oxoazetidine-1,2-dicarboxamide]
14 | 10 to 100 nM | CC[C@H](NC(=O)N1C(=O)[C@H](Cc2ccnc(N)c2)[C@H]1C(=O)N(C)c1ccn(C)n1)c1cccc(Cl)c1 [Compound 1-93, (2S,3R)-3-((2-aminopyridin-4-yl)methyl)-N2-(1-methyl-1H-pyrazol-3-yl)-N1-((S)-1-(3-chlorophenyl)propyl)-N2-methyl-4-oxoazetidine-1,2-dicarboxamide]
15 | 10 to 100 nM | CC[C@@H](NC(=O)N1C(=O)[C@H](Cc2ccnc(N)c2)[C@H]1C(=O)N(C)c1nccn1C)c1ccc(C)nc1C [Compound 1-95, (2S,3R)-3-((2-aminopyridin-4-yl)methyl)-N2-(1-methyl-1H-imidazol-2-yl)-N1-((R)-1-(2,6-dimethylpyridin-3-yl)propyl)-N2-methyl-4-oxoazetidine-1,2-dicarboxamide]
16 | 100 to 1000 nM | CC[C@H](NC(=O)N1C(=O)[C@H](Cc2ccnc(N)c2)[C@H]1C(=O)N(C)c1nccn1C)c1ccc(C)nc1C [Compound 1-96, (2S,3R)-3-((2-aminopyridin-4-yl)methyl)-N2-(1-methyl-1H-imidazol-2-yl)-N1-((S)-1-(2,6-dimethylpyridin-3-yl)propyl)-N2-methyl-4-oxoazetidine-1,2-dicarboxamide]
17 | 10 to 100 nM | CC[C@@H](NC(=O)N1C(=O)[C@H](Cc2cc(C)nc(N)c2)[C@H]1C(=O)N(C)c1nccn1C)c1cc(C)ccc1C [Compound 1-108, (2S,3R)-3-((2-amino-6-methylpyridin-4-yl)methyl)-N2-(1-methyl-1H-imidazol-2-yl)-N1-((R)-1-(2,5-dimethylphenyl)propyl)-N2-methyl-4-oxoazetidine-1,2-dicarboxamide]
18 | < 10 nM | CC[C@@H](NC(=O)N1C(=O)[C@H](Cc2ccnc(N)c2)[C@H]1C(=O)N(C)c1nccn1C)c1ccc(C)cc1Cl [Compound 1-116, (2S,3R)-3-((2-aminopyridin-4-yl)methyl)-N2-(1-methyl-1H-imidazol-2-yl)-N1-((R)-1-(2-chloro-4-methylphenyl)propyl)-N2-methyl-4-oxoazetidine-1,2-dicarboxamide]
19 | < 10 nM | CC[C@@H](NC(=O)N1C(=O)[C@H](Cc2ccnc(N)c2)[C@H]1C(=O)N(C)c1nccn1C)c1ccc(F)c(C)c1 [Compound 1-117, (2S,3R)-3-((2-aminopyridin-4-yl)methyl)-N2-(1-methyl-1H-imidazol-2-yl)-N1-((R)-1-(3-methyl-4-fluorophenyl)propyl)-N2-methyl-4-oxoazetidine-1,2-dicarboxamide]
